Test results reported in patent US9801843B2, “Self-emulsifying composition of ω3 fatty acid” (priority 2013, dated 2017).

Test: Pharmacokinetics in beagles (Test Example 5)
Format: in vivo
Details: plasma EPA, male beagles fasted, oral, 600 mg EPA-E, baseline-corrected
Protocol: The composition of Example 14 was orally administered to 6 male beagles (at the age of 2 to 6 years with the body weight of 13 kg, 3 Marshall beagles and 3 Nosan beagles) under fasting conditions, and blood EPA concentration was evaluated. The test animals had been fasted since 18 hours or more before the administration, and each animal was administered with the composition in an amount corresponding to 600 mg of the EPA-E. Blood was collected before the administration, and 0.5, 1, 1.5, 2, 3, 4, 6, 8, and 24 hours after the administration, and plasma was separated to measure plasma EPA concentration by LC/MS/MS (method in which a sample is isolated by liquid chromatography, then subjected to mass spectrometry to conduct separation and measurement thereon). The control group was administered with the EPA-E stock solution encapsulated in a capsule. […] In the calculation of each parameter, correction was made by subtracting the blood EPA concentration before the administration from the measured blood concentration.

SMILES: CC/C=C\C/C=C\C/C=C\C/C=C\C/C=C\CCCC(=O)OCC [EPA-E Stock solution, Ethyl eicosapentaenoate ester]
- AUC0-2: 14.4 µg·h/mL
- AUC0-24: 188 µg·h/mL
- Cmax: 16.6 µg/mL
